Key:
Experiment in all cases: relative viability (nuclei count vs DMSO), 5 days (fraction); higher = more cells survive
[1] = compound: COc1cc(-c2nn([C@H]3CC[C@H](N4CCN(C(C)=O)CC4)CC3)c3ncnc(N)c23)ccc1NC(=O)c1cc2ccccc2n1C + COc1cc2c(Oc3ccc(NC(=O)C4(C(=O)Nc5ccc(F)cc5)CC4)cc3F)ccnc2cc1OCCCN1CCOCC1 [Foretinib] (partner 0.25 µM)
Method in brief: (§1)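 Lung cancer cell lines were pin-tool dosed in 1536-well plates on the day after seeding, with either a lone drug or a fixed anchor-drug dose plus five library-drug doses (not always all listed) in √10 steps. Nuclei were counted on 4× images after 5 days. Relative viability is the ratio of treated-well to vehicle-well nuclei counts, with each value a median of duplicate plates.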

Midostaurin + Luminespib = compound: CO[C@@H]1[C@H](N(C)C(=O)c2ccccc2)C[C@H]2O[C@]1(C)n1c3ccccc3c3c4c(c5c6ccccc6n2c5c31)C(=O)NC4 [Midostaurin] + CCNC(=O)c1noc(-c2cc(C(C)C)c(O)cc2O)c1-c1ccc(CN2CCOCC2)cc1 [Luminespib] (partner 0.01 µM)
Method in brief: as §1

Midostaurin + Bortezomib = compound: CO[C@@H]1[C@H](N(C)C(=O)c2ccccc2)C[C@H]2O[C@]1(C)n1c3ccccc3c3c4c(c5c6ccccc6n2c5c31)C(=O)NC4 [Midostaurin] + CC(C)C[C@H](NC(=O)[C@H](Cc1ccccc1)NC(=O)c1cnccn1)B(O)O [Bortezomib] (partner 0.002 µM)
Method in brief: as §1

[2] = compound: COc1cc(-c2nn([C@H]3CC[C@H](N4CCN(C(C)=O)CC4)CC3)c3ncnc(N)c23)ccc1NC(=O)c1cc2ccccc2n1C + CS(=O)(=O)N1CCN(Cc2cc3nc(-c4cccc5[nH]ncc45)nc(N4CCOCC4)c3s2)CC1 [Pictilisib] (partner 1 µM)
Method in brief: as §1

[3] = compound: COc1cc(-c2nn([C@H]3CC[C@H](N4CCN(C(C)=O)CC4)CC3)c3ncnc(N)c23)ccc1NC(=O)c1cc2ccccc2n1C + NC(=O)Nc1cc(-c2cccc(F)c2)sc1C(=O)N[C@H]1CCCNC1 [AZD7762] (partner 0.2 µM)
Method in brief: as §1

| Cell Line | relative viability ([1]; first compound 0.0128 µM) | relative viability ([1]; first compound 0.04048 µM) | relative viability ([1]; first compound 0.128 µM) | relative viability ([1]; first compound 1.28 µM) | relative viability (Midostaurin + Luminespib; first compound 0.01 µM) | relative viability (Midostaurin + Luminespib; first compound 0.03162 µM) | relative viability (Midostaurin + Luminespib; first compound 0.1 µM) | relative viability (Midostaurin + Luminespib; first compound 0.3162 µM) | relative viability (Midostaurin + Bortezomib; first compound 0.01 µM) | relative viability (Midostaurin + Bortezomib; first compound 0.03162 µM) | relative viability (Midostaurin + Bortezomib; first compound 0.1 µM) | relative viability (Midostaurin + Bortezomib; first compound 0.3162 µM) | relative viability ([2]; first compound 0.0128 µM) | relative viability ([2]; first compound 0.04048 µM) | relative viability ([2]; first compound 0.128 µM) | relative viability ([2]; first compound 1.28 µM) | relative viability ([3]; first compound 0.0128 µM) | relative viability ([3]; first compound 0.04048 µM) | relative viability ([3]; first compound 0.128 µM) | relative viability ([3]; first compound 1.28 µM) |
| --- | --- | --- | --- | --- | --- | --- | --- | --- | --- | --- | --- | --- | --- | --- | --- | --- | --- | --- | --- | --- |
| PC-3 [JPC-3] | 1.07 | 1.14 | 1 | 1.06 | 0.736 | 0.658 | 0.667 | 0.692 | 0.891 | 0.734 | 0.683 | 0.85 | 0.65 | 0.791 | 0.721 | 0.764 | 0.654 | 0.877 | 0.834 | 0.76 |
| HOP-62 | 1.16 | 1.12 | 1.07 | 1.03 | 0.871 | 0.875 | 0.934 | 0.984 | 0.887 | 0.728 | 0.635 | 1.17 | 0.831 | 0.285 | 0.738 | 0.604 | 0.74 | 0.555 | 0.661 | 0.566 |
| HARA | 1.07 | 0.846 | 0.687 | 0.332 | 0.917 | 0.712 | 0.681 | 0.76 | 1.12 | 1.03 | 1.07 | 1.12 | 0.454 | 0.395 | 0.349 | 0.362 | 0.257 | 0.432 | 0.124 | 0.281 |
| NCI-H838 | 1.01 | 0.989 | 0.973 | 0.604 | 0.32 | 0.362 | 0.322 | 0.299 | 0.886 | 0.91 | 0.638 | 0.448 | 0.403 | 0.397 | 0.38 | 0.338 | 1 | 0.921 | 0.91 | 0.75 |
| NCI-H1755 | 1.02 | 0.87 | 0.833 | 0.885 | 0.418 | 0.47 | 0.247 | 0.443 | 0.914 | 0.912 | 0.887 | 0.755 | 0.509 | 0.169 | 0.402 | 0.299 | 0.501 | 0.344 | 0.371 | 0.417 |
| NCI-H322M | 1.03 | 1.11 | 0.878 | 0.785 | 0.826 | 0.829 | 0.969 | 1.23 | 1.37 | 1.27 | 1.17 | 1.34 | 0.521 | 0.449 | 0.51 | 0.463 | 0.496 | 0.599 | 0.536 | 0.444 |
| NCI-H3122 | 1.02 |  | 0.877 | 0.777 | 0.093 | 0.104 | 0.0868 | 0.0981 | 0.991 | 0.968 | 1.04 | 1.02 | 0.552 |  | 0.548 | 0.484 | 1.06 |  | 0.958 | 0.845 |
| NCI-H2087 | 1.25 |  | 1.11 | 0.948 | 0.258 | 0.18 | 0.154 | 0.169 | 0.827 | 0.717 | 0.542 | 0.841 | 1.06 | 0.399 | 0.842 | 0.753 | 1.31 |  | 1.18 | 1.08 |
| LC-2-ad | 0.932 | 0.976 | 0.886 | 0.662 | 0.953 | 0.955 | 0.925 | 0.996 | 1.03 | 0.979 | 0.995 | 1 | 0.606 | 0.009 | 0.455 | 0.311 | 0.86 | 0.846 | 0.789 | 0.646 |
| NCI-H1915 | 1.14 | 1.03 | 1.06 | 0.844 | 0.711 | 0.75 | 0.613 | 0.797 | 0.936 | 1 | 0.968 | 0.993 | 0.968 | 0.532 | 0.939 | 0.879 | 0.714 | 0.665 | 0.69 | 0.448 |
| RERF-LC-KJ | 0.867 | 0.957 | 0.838 | 0.864 | 1.29 | 1.49 | 1.14 | 1.17 | 1.16 | 1.18 | 1.16 | 1.23 | 0.572 | 0.557 | 1.11 | 0.538 | 0.911 | 0.949 | 0.981 | 0.749 |
| LXF-289 | 1.05 | 0.962 | 0.986 | 1.03 | 0.692 | 0.706 | 0.482 | 0.596 | 0.997 | 0.97 | 0.967 | 0.974 | 0.827 | 0.586 | 0.775 | 0.509 | 1.29 | 0.964 | 1.04 | 1.14 |
| PC-14 | 0.956 | 1.06 | 0.885 | 0.979 | 0.136 | 0.197 | 0.147 | 0.152 | 0.839 | 0.713 | 0.811 | 0.815 | 0.744 | 0.792 | 0.664 | 0.625 | 0.42 | 0.417 | 0.365 | 0.355 |
| NCI-H650 | 1.02 | 1.24 | 1.07 | 1.02 | 0.76 | 0.826 | 0.8 | 0.771 | 0.635 | 0.783 | 0.734 | 0.625 | 0.944 | 0.96 | 0.944 | 0.866 | 1.13 | 1.02 | 0.975 | 0.935 |
| NCI-H1666 | 0.971 | 0.881 | 0.957 | 0.947 | 0.966 | 0.927 | 0.897 | 0.864 | 0.852 | 0.894 | 0.882 | 0.888 | 0.521 | 0.367 | 0.394 | 0.397 | 0.821 | 0.841 | 0.802 | 0.741 |
| NCI-H2085 | 1.12 | 0.876 | 0.834 | 0.691 | 0.42 | 0.464 | 0.371 | 0.42 | 0.968 | 0.963 | 1.08 | 0.946 | 0.532 | 0.484 | 0.381 | 0.458 | 1.08 | 0.929 | 0.854 | 0.427 |
| NCI-H1734 | 0.877 | 0.683 | 0.897 | 0.536 | 0.224 | 0.192 | 0.178 | 0.187 | 0.868 | 0.886 | 0.915 | 0.786 | 0.47 | 0.38 | 0.481 | 0.362 | 0.614 | 0.519 | 0.578 | 0.508 |
| NCI-H2126 | 1.34 | 1 | 1.11 | 0.983 | 0.889 | 0.679 | 0.847 | 0.896 | 1.07 | 1.08 | 1.03 | 1.12 | 0.567 | 0.434 | 0.48 | 0.438 | 1.06 | 0.988 | 0.976 | 0.817 |
| EMC-BAC-2 | 1.06 | 1.05 | 0.968 | 0.617 | 1.11 | 1.05 | 0.898 | 1.16 | 1.08 | 0.998 | 1.04 | 1.1 | 0.547 | 0.501 | 0.504 | 0.494 | 1.13 | 1.28 | 1.09 | 1.09 |
| NCI-H1993 | 0.747 | 0.743 | 0.784 | 0.556 | 0.807 | 0.821 | 0.866 | 0.856 | 1.03 | 1.15 | 1.08 | 1.11 | 0.845 | 0.899 | 0.826 | 0.775 | 0.823 | 0.549 | 0.715 | 0.752 |
| NCI-H647 | 1.16 | 1.44 | 1.21 | 0.806 | 0.191 | 0.181 | 0.141 | 0.264 | 0.953 | 1.07 | 0.876 | 0.765 | 0.41 | 0.456 | 0.257 | 0.28 | 0.503 | 0.602 | 0.403 | 0.367 |
| ChaGo-K-1 | 0.994 | 0.897 | 0.892 | 0.742 | 0.619 | 0.627 | 0.525 | 0.626 | 0.985 | 1.28 | 0.759 | 1.12 | 0.66 | 0.669 | 0.587 | 0.644 | 0.829 | 0.779 | 0.818 | 0.72 |
| LOU-NH91 | 0.991 | 0.99 | 0.968 | 0.922 | 0.328 | 0.347 | 0.394 | 0.309 | 0.506 | 0.48 | 0.529 | 0.528 | 0.517 | 0.555 | 0.511 | 0.509 | 0.813 | 0.796 | 0.732 | 0.658 |
| NCI-H2405 | 1.09 | 0.855 | 1.04 | 0.535 | 0.729 | 0.704 | 0.64 | 0.45 | 1.02 | 0.985 | 0.979 | 1.01 | 0.422 | 0.26 | 0.303 | 0.258 | 0.707 | 0.615 | 0.573 | 0.349 |
| LCLC-97TM1 | 1.06 | 0.692 | 0.864 | 0.887 | 0.836 | 0.713 | 0.749 | 0.763 | 0.475 |  | 0.419 | 0.595 | 0.229 | 0.107 | 0.227 | 0.281 | 0.377 | 0.165 | 0.283 | 0.194 |
| NCI-H596 | 0.884 | 0.835 | 0.709 | 0.558 | 1.13 | 1.17 | 0.869 | 1.18 | 0.902 | 1.12 | 1.1 | 1.07 | 0.412 | 0.451 | 0.356 | 0.44 | 1.55 | 1.15 | 1.09 | 0.851 |
| NCI-H727 | 0.915 |  | 0.831 | 0.587 | 0.343 | 0.335 | 0.264 | 0.902 | 0.906 | 0.81 | 0.771 | 0.795 | 0.355 |  | 0.401 | 0.301 | 0.562 |  | 0.716 | 0.575 |

— the supplement of paper PMC10307832
